From ChEMBL document CHEMBL3046389, “Synthesis and biological evaluation of novel hydroquinone dimethyl ethers as potential anticancer and antimicrobial agents” (2013)
In brackets after ≈: the same amount, converted by molar mass.

Key:
Type in all cases: functional
[1] = test system: SR; test: Anticancer activity against Homo sapiens (human) SR cells after 48 hr by SRB assay
[2] = test system: HCC 2998; test: Growth inhibition of Homo sapiens (human) HCC2998 cells at 10 uM after 48 hr by SRB assay; conditions: HCC 2998, 48 h, read-out: GI
[3] = test system: UO-31; test: Growth inhibition of Homo sapiens (human) UO31 cells at 10 uM after 48 hr by SRB assay; conditions: UO-31, 48 h, read-out: GI
[4] = test system: Candida albicans; test: Antimicrobial activity against Candida albicans DSM 70014 after 48 hr by two-fold serial broth dilution method; conditions: DSM 70014, 48 h
[5] = test system: Malme-3M; test: Anticancer activity against Homo sapiens (human) MALME-3M cells after 48 hr by SRB assay; conditions: for CC50: read-out: LC50 (the source's name)
[6] = test system: LOX IMVI; test: Anticancer activity against Homo sapiens (human) LOXIMVI cells after 48 hr by SRB assay; conditions: for CC50: read-out: LC50 (the source's name)
[7] = test system: U-251; test: Anticancer activity against Homo sapiens (human) U251 cells after 48 hr by SRB assay; conditions: U-251, 48 h; for CC50: read-out: LC50 (the source's name)
[8] = test system: SF-295; test: Anticancer activity against Homo sapiens (human) SF295 cells after 48 hr by SRB assay; conditions: SF-295, 48 h; for CC50: read-out: LC50 (the source's name)
[9] = test system: SW-620; test: Anticancer activity against Homo sapiens (human) SW620 cells after 48 hr by SRB assay; conditions: SW-620, 48 h; for CC50: read-out: LC50 (the source's name)
[10] = test system: COLO 205; test: Anticancer activity against Homo sapiens (human) COLO205 cells after 48 hr by SRB assay; conditions: COLO 205, 48 h; for CC50: read-out: LC50 (the source's name)
[11] = test system: NCI-H522; test: Anticancer activity against Homo sapiens (human) NCI-H522 cells after 48 hr by SRB assay; conditions: NCI-H522, 48 h; for CC50: read-out: LC50 (the source's name)
[12] = test system: NCI-H322M; test: Anticancer activity against Homo sapiens (human) NCI-H322M cells after 48 hr by SRB assay; conditions: for CC50: read-out: LC50 (the source's name)
[13] = test system: NCI-H23; test: Anticancer activity against Homo sapiens (human) NCI-H23 cells after 48 hr by SRB assay; conditions: NCI-H23, 48 h; for CC50: read-out: LC50 (the source's name)
[14] = test system: HOP-92; test: Anticancer activity against Homo sapiens (human) HOP92 cells after 48 hr by SRB assay; conditions: HOP-92, 48 h; for CC50: read-out: LC50 (the source's name)
[15] = test system: EKVX; test: Anticancer activity against Homo sapiens (human) EKVX cells after 48 hr by SRB assay; conditions: for CC50: read-out: LC50 (the source's name)
[16] = test system: CCRF-CEM; test: Growth inhibition of Homo sapiens (human) CCRF-CEM cells at 10 uM after 48 hr by SRB assay; conditions: read-out: GI
[17] = test system: Staphylococcus aureus; test: Antimicrobial activity against Staphylococcus aureus DSM 1104 after 48 hr by two-fold serial broth dilution method; conditions: DSM 1104, 48 h
[18] = test system: TK-10; test: Anticancer activity against Homo sapiens (human) TK10 cells after 48 hr by SRB assay; conditions: TK-10, 48 h; for CC50: read-out: LC50 (the source's name)
[19] = test system: SN12C; test: Anticancer activity against Homo sapiens (human) SN12C cells after 48 hr by SRB assay
[20] = test system: RXF 393; test: Anticancer activity against Homo sapiens (human) RXF393 cells after 48 hr by SRB assay; conditions: RXF 393, 48 h
[21] = test system: CAKI-1; test: Anticancer activity against Homo sapiens (human) CAKI-1 cells after 48 hr by SRB assay; conditions: CAKI-1, 48 h; for CC50: read-out: LC50 (the source's name)
[22] = test system: ACHN; test: Anticancer activity against Homo sapiens (human) ACHN cells after 48 hr by SRB assay; conditions: for CC50: read-out: LC50 (the source's name)
[23] = test system: OVCAR-4; test: Anticancer activity against Homo sapiens (human) OVCAR4 cells after 48 hr by SRB assay; conditions: OVCAR-4, 48 h; for CC50: read-out: LC50 (the source's name)
[24] = test system: OVCAR-3; test: Anticancer activity against Homo sapiens (human) OVCAR3 cells after 48 hr by SRB assay; conditions: OVCAR-3, 48 h
[25] = test system: SK-MEL-28; test: Anticancer activity against Homo sapiens (human) SK-MEL-28 cells after 48 hr by SRB assay; conditions: SK-MEL-28, 48 h
[26] = test system: Bacillus subtilis; test: Antimicrobial activity against Bacillus subtilis ATCC 6633 after 48 hr by two-fold serial broth dilution method; conditions: ATCC 6633, 48 h
[27] = test system: IGROV-1; test: Growth inhibition of Homo sapiens (human) IGROV1 cells at 10 uM after 48 hr by SRB assay; conditions: IGROV-1, 48 h, read-out: GI
[28] = test system: Malme-3M; test: Growth inhibition of Homo sapiens (human) MALME-3M cells at 10 uM after 48 hr by SRB assay; conditions: read-out: GI
[29] = test system: U-251; test: Growth inhibition of Homo sapiens (human) U251 cells at 10 uM after 48 hr by SRB assay; conditions: U-251, 48 h, read-out: GI
[30] = test system: SF-539; test: Growth inhibition of Homo sapiens (human) SF539 cells at 10 uM after 48 hr by SRB assay; conditions: SF-539, 48 h, read-out: GI
[31] = test system: SF-295; test: Growth inhibition of Homo sapiens (human) SF295 cells at 10 uM after 48 hr by SRB assay; conditions: SF-295, 48 h, read-out: GI
[32] = test system: HT-29; test: Growth inhibition of Homo sapiens (human) HT-29 cells at 10 uM after 48 hr by SRB assay; conditions: HT-29, 48 h, read-out: GI
[33] = test system: Hs-578T; test: Growth inhibition of Homo sapiens (human) Hs 578T cells at 10 uM after 48 hr by SRB assay; conditions: read-out: GI
[34] = test system: TK-10; test: Growth inhibition of Homo sapiens (human) TK10 cells at 10 uM after 48 hr by SRB assay; conditions: TK-10, 48 h, read-out: GI

## COc1ccc(OC)c(/C=C/c2nnc(S)n2-c2ccc(Cl)cc2)c1
[1]
  GI50: 4.56 µM
  TGI: > 100 µM
[1]; read-out: LC50 (the source's name)
  CC50: > 100 µM
[2]
  inhibition of growth at 10 µM: 54.4%
[3]
  inhibition of growth at 10 µM: 52.9%
[4]
  MFC: 100 µg/mL (≈ 267 µM)
  MIC: 100 µg/mL (≈ 267 µM)
[5]
  GI50: 70.6 µM
  TGI: > 100 µM
  CC50: > 100 µM
[6]
  GI50: 5.02 µM
  TGI: > 100 µM
  CC50: > 100 µM
[7]
  GI50: 6.88 µM
  TGI: > 100 µM
  CC50: > 100 µM
[8]
  GI50: 4.16 µM
  TGI: > 100 µM
  CC50: > 100 µM
[9]
  GI50: 5.09 µM
  TGI: > 100 µM
  CC50: > 100 µM
[10]
  GI50: 12.4 µM
  TGI: 68.4 µM
  CC50: > 100 µM
[11]
  GI50: 4.07 µM
  TGI: > 100 µM
  CC50: > 100 µM
[12]
  GI50: 26.9 µM
  TGI: > 100 µM
  CC50: > 100 µM
[13]
  GI50: 5.88 µM
  TGI: > 100 µM
  CC50: > 100 µM
[14]
  GI50: 3.56 µM
  TGI: > 100 µM
  CC50: > 100 µM
[15]
  GI50: 30 µM
  TGI: > 100 µM
  CC50: > 100 µM
[16]
  inhibition of growth at 10 µM: 39.4%
[17]
  MBC: 100 µg/mL (≈ 267 µM)
  MIC: 100 µg/mL (≈ 267 µM)
[18]
  GI50: 25.8 µM
  TGI: > 100 µM
  CC50: > 100 µM
[19]
  GI50: 6.07 µM
  LC50: > 100 µM
  TGI: > 100 µM
[20]
  GI50: 3.38 µM
  LC50: > 100 µM
  TGI: 38.7 µM
[21]
  GI50: 2.8 µM
  CC50: > 100 µM
[22]
  GI50: 23.8 µM
  TGI: > 100 µM
  CC50: > 100 µM
[23]
  GI50: 20.6 µM
  TGI: > 100 µM
  CC50: > 100 µM
[24]
  GI50: 3.34 µM
  LC50: > 100 µM
  TGI: 21.4 µM
[25]
  GI50: 11.1 µM
  LC50 (concentration killing 50% of cells): > 100 µM
  TGI: > 100 µM
[26]
  MBC: 100 µg/mL (≈ 267 µM)
  MIC: 100 µg/mL (≈ 267 µM)
[27]
  inhibition of growth at 10 µM: 59.9%
[28]
  inhibition of growth at 10 µM: 70.2%
[29]
  inhibition of growth at 10 µM: 46.7%
[30]
  inhibition of growth at 10 µM: 60.5%
[31]
  inhibition of growth at 10 µM: 68.8%
[32]
  inhibition of growth at 10 µM: 34.6%

## COc1ccc(OC)c(/C=C/C(=O)N/N=C/c2ccccc2)c1
[2]
  inhibition of growth at 10 µM: 33.6%
[33]
  inhibition of growth at 10 µM: 33.5%
[3]
  inhibition of growth at 10 µM: 43.4%
[34]
  inhibition of growth at 10 µM: 43.3%
[4]
  MFC: 100 µg/mL (≈ 322 µM)
  MIC: 100 µg/mL (≈ 322 µM)
[5]
  GI50: 2.12 µM
  TGI: > 100 µM
  CC50: > 100 µM
[6]
  GI50: 4.11 µM
  TGI: > 100 µM
  CC50: > 100 µM
[7]
  GI50: 3.68 µM
  TGI: > 100 µM
  CC50: > 100 µM
[8]
  GI50: 1 µM
  TGI: 11.1 µM
  CC50: > 100 µM
[9]
  GI50: 1.5 µM
  TGI: 6.23 µM
  CC50: > 100 µM
[10]
  GI50: 4.8 µM
  TGI: 35.1 µM
  CC50: > 100 µM
[11]
  GI50: 1.57 µM
  TGI: 41.7 µM
  CC50: > 100 µM
[12]
  GI50: 5.22 µM
  TGI: > 100 µM
  CC50: > 100 µM
[13]
  GI50: 5.4 µM
  TGI: 87 µM
  CC50: > 100 µM
[14]
  GI50: 1.56 µM
  TGI: 13.3 µM
  CC50: > 100 µM
[15]
  GI50: 1.59 µM
  TGI: 59.5 µM
  CC50: > 100 µM
[16]
  inhibition of growth at 10 µM: 44.8%
[17]
  MBC: 100 µg/mL (≈ 322 µM)
  MIC: 100 µg/mL (≈ 322 µM)
[18]
  GI50: 16.6 µM
  TGI: > 100 µM
  CC50: > 100 µM
[19]
  GI50: 4.17 µM
  LC50: > 100 µM
  TGI: 39.9 µM
[20]
  GI50: 3.9 µM
  LC50: > 100 µM
  TGI: 26.6 µM
[21]
  GI50: 0.443 µM
  TGI: 6.66 µM
  CC50: > 100 µM
[22]
  GI50: 9.66 µM
  TGI: > 100 µM
  CC50: > 100 µM
[23]
  GI50: 14.3 µM
  TGI: > 100 µM
  CC50: > 100 µM
[24]
  GI50: 3.15 µM
  LC50: > 100 µM
  TGI: > 100 µM
[25]
  GI50: 8.89 µM
  LC50 (concentration killing 50% of cells): > 100 µM
  TGI: > 100 µM
[26]
  MBC: 100 µg/mL (≈ 322 µM)
  MIC: 50 µg/mL (≈ 161 µM)
[27]
  inhibition of growth at 10 µM: 61.5%
[28]
  inhibition of growth at 10 µM: 41%
[29]
  inhibition of growth at 10 µM: 56.5%
[30]
  inhibition of growth at 10 µM: 48.2%
[31]
  inhibition of growth at 10 µM: 51.5%
[32]
  inhibition of growth at 10 µM: 79.3%
